In article PMC7603158, “Attenuation of Spatial Memory in 5xFAD Mice by Halting Cholinesterases, Oxidative Stress and Neuroinflammation Using a Cyclopentanone Derivative” (Pharmaceuticals, 2020):

Biological target: Acetylcholinesterase (AChE) (Electrophorus electricus, UniProt O42275)
Test: Ellman colorimetric enzyme inhibition assay (commercial enzyme)
Assay type: biochemical

Sequence of Acetylcholinesterase (AChE) (O42275 24-633): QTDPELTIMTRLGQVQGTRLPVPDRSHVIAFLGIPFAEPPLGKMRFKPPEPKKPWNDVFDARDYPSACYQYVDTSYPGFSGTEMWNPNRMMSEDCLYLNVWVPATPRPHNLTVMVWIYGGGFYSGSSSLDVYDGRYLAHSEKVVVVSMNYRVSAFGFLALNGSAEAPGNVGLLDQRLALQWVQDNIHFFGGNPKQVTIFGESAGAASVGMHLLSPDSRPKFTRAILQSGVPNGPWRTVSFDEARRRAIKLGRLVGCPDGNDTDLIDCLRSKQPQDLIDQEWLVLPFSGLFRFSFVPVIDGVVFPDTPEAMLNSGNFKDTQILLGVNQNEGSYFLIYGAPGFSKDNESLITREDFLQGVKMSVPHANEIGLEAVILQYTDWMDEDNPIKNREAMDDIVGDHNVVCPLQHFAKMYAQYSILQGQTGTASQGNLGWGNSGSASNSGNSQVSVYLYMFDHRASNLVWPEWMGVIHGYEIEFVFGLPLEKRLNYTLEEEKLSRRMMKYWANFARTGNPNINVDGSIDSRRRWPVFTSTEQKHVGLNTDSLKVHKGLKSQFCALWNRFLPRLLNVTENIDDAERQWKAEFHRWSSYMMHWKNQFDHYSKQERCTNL

`O=C1CCCC1C(O)c1cccc([N+](=O)[O-])c1` (stereo not shown) [3NCP, 2-(hydroxy-(3-nitrophenyl)methyl)cyclopentanone] showed an IC50 of 68.7 µM.
